Like-named read-outs stand apart in the source and are kept apart here.

The subject of assay [1] is MCF-7 cells. The assay can be described thus: Sulforhodamine B cell proliferation assay. The assay is classed as cell-based, human. To be noted: MCF-7, 72 hours, SRB. The protocol: (§1) Sulforhodamine B (SRB) assay: The cell proliferation assay was performed in 96-well plates as described previously. Adherent cells (MCF-7 and MDA-MB-231) were seeded in 96-well plates at a density of 5×10^3 cells per well. They were treated with increasing concentrations of the halogenated analogs the next day while in log-phase growth. After 72 hours of drug treatment, cells were fixed with 50% trichloroacetic acid and stained with 0.4% sulforhodamine B dissolved in 1% acetic acid. After 30 minutes, cells were then washed with 1% acetic acid to remove the unbound dye. The protein-bound dye was extracted with 10 mM Tris base to determine the optical density at 564-nm wavelength.

Assay [2] concerns the target T1, tubulin.
T1 construct: other: 2 μM tubulin, 45 min at 37° C., double reciprocal plot; rate and extent of tubulin polymerization; other: 25 μM or 100 μM
The assay can be described thus: Tubulin binding assay (fluorescence titration, quenching of intrinsic tubulin fluorescence). Details: species or system mammalian. The settings on record: 2 μM tubulin, 45 min at 37° C., double reciprocal plot; read-out: dissociation constant (Kd) for binding to tubulin. How it is done:
Fluorescence titration for determining the tubulin binding parameters was performed as described previously (Gupta and Panda, 2002). In brief, 9-nitro-nos (0-100 μM) was incubated with 2 μM tubulin in 25 mM PIPES, pH 6.8, 3 mM MgSO4 and 1 mM EGTA for 45 min at 37° C. The relative intrinsic fluorescence intensity of tubulin was then monitored in a JASCO FP-6500 spectrofluorometer (JASCO, Tokyo, Japan) using a cuvette of 0.3-cm path length, and the excitation wavelength was 295 nm. The fluorescence emission intensity of 9-nitro-nos at this excitation wavelength was negligible. A 0.3-cm path-length cuvette was used to minimize the inner filter effects caused by the absorbance of 9-nitro-nos at higher concentration ranges. In addition, the inner filter effects were corrected using a formula Fcorrected=Fobserved·antilog [(Aex+Aem)/2], where Aex is the absorbance at the excitation wavelength and Aem is the absorbance at the emission wavelength. The dissociation constant (Kd) was determined by the formula: 1/B=Kd/[free ligand]+1, where B is the fractional occupancy and [free ligand] is the concentration of free noscapine or 9-nitro-nos. The fractional occupancy (B) was determined by the formula B=ΔF/ΔFmax, where ΔF is the change in fluorescence intensity when tubulin and its ligand are in equilibrium and ΔFmax is the value of maximum fluorescence change when tubulin is completely bound with its ligand. ΔFmax was calculated by plotting 1/ΔF versus 1/ligand using total ligand concentration as the first estimate of free ligand concentration.
Fluorescence titration for determining the tubulin binding parameters was performed as described previously. In brief, 9-F-nos, 9-Cl-nos, 9-Br-nos or 9-I-nos (0-100 μM) was incubated with 2 μM tubulin in 25 mM PIPES, pH 6.8, 3 mM MgSO4, and 1 mM EGTA for 45 min at 37° C. The relative intrinsic fluorescence intensity of tubulin was then monitored in a JASCO FP-6500 spectrofluorometer (JASCO, Tokyo, Japan) using a cuvette of 0.3-cm path length, and the excitation wavelength was 295 nm. The fluorescence emission intensity of noscapine and its derivatives at this excitation wavelength was negligible. A 0.3-cm path-length cuvette was used to minimize the inner filter effects caused by the absorbance of these agents at higher concentration ranges. In addition, the inner filter effects were corrected using a formula F corrected=F observe·antilog [(Aex+Aem)/2], where Aex is the absorbance at the excitation wavelength and Aem is the absorbance at the emission wavelength. The dissociation constant (Kd) was determined by the formula: 1/B=Kd/[free ligand]+1, where B is the fractional occupancy and [free ligand] is the concentration of 9-F-nos, 9-Cl-nos, 9-Br-nos or 9-I-nos. The fractional occupancy (B) was determined by the formula B=ΔF/ΔFmax, where ΔF is the change in fluorescence intensity when tubulin and its ligand are in equilibrium and ΔFmax is the value of maximum fluorescence change when tubulin is completely bound with its ligand. ΔFmax was calculated by plotting 1/ΔF versus 1/[free ligand].

Assay [3] relates to MDA-MB-231 cells. The assay can be described thus: DAPI staining, cell morphology by fluorescence microscopy. The assay is classed as cell-based, human. To be noted: 25 μM, 72 hours. How it is done: Cell morphology was evaluated by fluorescence microscopy following DAPI staining (Vectashield, Vector Labs, Inc., Burlingame, Calif.). MDA-MB-231 cells were grown on poly-L-lysine coated coverslips in 6-well plates and were treated with the halogenated analogs at 25 μM for 72 hours. After incubation, coverslips were fixed in cold methanol and washed with PBS, stained with DAPI, and mounted on slides. Images were captured using a BX60 microscope (Olympus, Tokyo, Japan) with an 8-bit camera (Dage-MTI, Michigan City, Ind.) and IP Lab software (Scanalytics, Fairfax, Va.). Apoptotic cells were identified by features characteristic of apoptosis (e.g. nuclear condensation, formation of membrane blebs and apoptotic bodies).

Assay [4] concerns MDA-MB-231 cells. The assay can be described thus: Sulforhodamine B cell proliferation assay. The settings on record: Homo sapiens; MDA-MB-231, 72 hours, SRB. Type of assay: cell-based. How it is done:
as §1

Assay [5] relates to MCF-7 cells. The assay can be described thus: Cell cycle analysis (propidium iodide, flow cytometry). The settings on record: for G0/G1 / G2/M / S / Sub-G1: MCF-7, 25 μM, mean ± S.E.M.; for percent sub-G1 cells compared with noscapine: MCF-7, lower doses (5 μM and 10 μM), 72 hours. The assay is classed as cell-based, human. How it is done: The flow cytometric evaluation of the cell cycle status was performed as described previously. Briefly, 2×10^6 cells were centrifuged, washed twice with ice-cold PBS, and fixed in 70% ethanol. Tubes containing the cell pellets were stored at 4° C. for at least 24 hours. Cells were then centrifuged at 1000×g for 10 min and the supernatant was discarded. The pellets were washed twice with 5 ml of PBS and then stained with 0.5 ml of propidium iodide (0.1% in 0.6% Triton-X in PBS) and 0.5 ml of RNase A (2 mg/ml) for 45 minutes in dark. Samples were then analyzed on a FACSCalibur flow cytometer (Beckman Coulter Inc., Fullerton, Calif.).
(In general: A flow cytometer gives signals particle by particle.)

Another assay has as its system CEM cells. The assay can be described thus: In vitro cell proliferation MTS assay. The assay is classed as cell-based. To be noted: Homo sapiens, CCRF-CEM, 72 hours. The protocol: (§2) Suspension cells (CEM, CEMNLB100 and CEM/VM-1-5) were cultured in RPMI-1640 media containing 10% FBS and then seeded into 96-well plates at a density of 5×10^3 cells per well and were treated with increasing gradient concentrations of 9-nitro-nos for 72 hours. Measurement of cell proliferation was performed colorimetrically by 3-(4,5-dimethylthiazol-2-yl)-5-(3-carboxymethoxyphenyl)-2-(4-sulphophenyl)-2H-tetrazolium, inner salt (MTS) assay, using the CellTiter96 AQueous One Solution Reagent (Promega, Madison, Wis.). Cells were exposed to MTS for 3 hours and absorbance was measured using a microplate reader (Molecular Devices, Sunnyvale, Calif.) at an optical density (OD) of 490 nm. The percentage of cell survival as a function of drug concentration for both the assays was then plotted to determine the IC50 value, which stands for the drug concentration needed to prevent cell proliferation by 50%.
as §2, with “(CEM)” for “(CEM, CEMNLB100 and CEM/VM-1-5)”, “were” for “were cultured in RPMI-1640 media containing 10% FBS and then”, “increasing” for “increasing gradient”, “all halogenated analogs” for “9-nitro-nos”
On the technique in general: Tetrazolium dyes change colour on reduction, which living cells bring about.

In assay [6] the target is T1, tubulin. The settings on record: values with literature reference [18], [12], [43]; read-out: dissociation constant (Kd) for binding to tubulin; cited from earlier work.

By IC50 is commonly meant the point on the concentration scale where inhibition reaches its midpoint. A higher IC50 goes with weaker potency in that assay. In general, Kd refers to the equilibrium constant for the complex coming apart. With `COc1ccc2c(c1OC)C(=O)O[C@@H]2[C@H]1c2c(c(I)c3c(c2OC)OCO3)CCN1C` [9-I-nos, (S)-6,7-dimethoxy-3-((R)-4-methoxy-6-methyl-9-iodo-5,6,7,8-tetrahydro-[1,3]dioxolo[4,5-g]isoquinolin-5-yl)isobenzofuran-1(3H)-one], the IC50 in the assay on MCF-7 cells [1] (Homo sapiens, MCF7, 72 h) is 45.6 ± 3.1 µM; in the assay on MDA-MB-231 cells [4], 25.6 ± 2.4 µM; with CEM cells, 38900 ± 3500 nM. Further, the Kd on tubulin [2] was determined as 22 ± 4 µM. The “nuclear morphology (features of apoptotic cells), DAPI” value (“nuclear morphology” for short) with MDA-MB-231 cells [3] was “condensed chromosomes, numerous fragmented micronuclei, and apoptotic bodies are evident”. Besides, the G0/G1 with MCF-7 cells [5] (0 h) turned out to be 60.6 ± 4.6%; in the assay on MCF-7 cells [5] (24 h) it was 17 ± 2.3%; with MCF-7 cells [5] (48 h), 15.4 ± 4.5%; with MCF-7 cells [5] (72 h), 17 ± 1.9%. For the same compound, the G2/M in the assay with MCF-7 cells [5] (0 h) came to 23.1 ± 3.7%; in the assay on MCF-7 cells [5] (24 h), 44.5 ± 5.1%; in the assay on MCF-7 cells [5] (48 h) it was 25.9 ± 4.1%; in the assay on MCF-7 cells [5] (72 h), 20.7 ± 2.2%. For the same compound, the S in the assay on MCF-7 cells [5] (0 h) is recorded as 13.9 ± 2.3%; in the assay on MCF-7 cells [5] (24 h), 3.1 ± 1.3%; with MCF-7 cells [5] (48 h), 2.9 ± 0.6%; in the assay on MCF-7 cells [5] (72 h), 4.9 ± 2.2%. The Sub-G1 is on record as 0.3 ± 0.2% in the assay with MCF-7 cells [5] (0 h), 7.7 ± 1.7% in the assay on MCF-7 cells [5] (24 h), 28.1 ± 3.1% with MCF-7 cells [5] (48 h) and 30.1 ± 3.1% in the assay on MCF-7 cells [5] (72 h).

Turning to `COc1ccc2c(c1OC)C(=O)OC2C1c2c(c(Cl)c3c(c2OC)OCO3)CCN1C` (stereo not shown) [9-Cl-nos], the half-inhibitory concentration (IC50) with MCF-7 cells [1] (Homo sapiens, MCF7, 72 h) was 1.9 ± 0.3 µM; in the assay with MCF-7 cells [1] it was 3.5 ± 0.4 µM; with MDA-MB-231 cells [4], 1.9 ± 0.3 µM; in the assay with CEM cells, 1200 ± 300 nM. For the same compound, the Kd on tubulin [2] and on tubulin [6] was 40 ± 8 µM each time. Also, the “nuclear morphology” value in the assay with MDA-MB-231 cells [3] was “condensed chromosomes, numerous fragmented micronuclei, and apoptotic bodies are evident”. Further, the G0/G1 in the assay on MCF-7 cells [5] (0 h) is 69 ± 5.6%; with MCF-7 cells [5] (24 h), 11.5 ± 2.7%; in the assay on MCF-7 cells [5] (48 h), 8 ± 3.3%; with MCF-7 cells [5] (72 h) it was 5.9 ± 1.9%. In addition, the G2/M in the assay with MCF-7 cells [5] (0 h) is recorded as 20.7 ± 3.4%; in the assay with MCF-7 cells [5] (24 h), 59.7 ± 5.2%; with MCF-7 cells [5] (48 h), 42.4 ± 3.8%; in the assay on MCF-7 cells [5] (72 h) it was 35.3 ± 3.9%. In addition, the S turned out to be 7.5 ± 1.6% with MCF-7 cells [5] (0 h), 4.3 ± 1.4% with MCF-7 cells [5] (24 h), 4 ± 1.1% with MCF-7 cells [5] (48 h) and 4.1 ± 1.4% with MCF-7 cells [5] (72 h). The Sub-G1 in the assay on MCF-7 cells [5] (0 h) was 1.4 ± 0.5%; with MCF-7 cells [5] (24 h), 15.3 ± 2.5%; with MCF-7 cells [5] (48 h), 37.8 ± 3.2%; in the assay on MCF-7 cells [5] (72 h), 50.2 ± 2.5%. Moreover, the “percent sub-G1 cells compared with noscapine” value with MCF-7 cells [5] is given as “higher”.

Take `COc1ccc2c(c1OC)C(=O)O[C@@H]2[C@H]1c2c(c(F)c3c(c2OC)OCO3)CCN1C` [9-F-nos, (S)-6,7-dimethoxy-3-((R)-4-methoxy-6-methyl-9-fluoro-5,6,7,8-tetrahydro-[1,3]dioxolo[4,5-g]isoquinolin-5-yl)isobenzofuran-1(3H)-one]: the IC50 in the assay with MCF-7 cells [1] (Homo sapiens, MCF7, 72 h) worked out at 3.3 ± 0.8 µM; in the assay with MDA-MB-231 cells [4] it was 8.2 ± 0.6 µM; with CEM cells, 2300 ± 700 nM. Further, the Kd at tubulin [2] was found to be 81 ± 8 µM. In the assay with MDA-MB-231 cells [3], the “nuclear morphology” value is “condensed chromosomes, numerous fragmented micronuclei, and apoptotic bodies are evident”. The G0/G1 in the assay with MCF-7 cells [5] (0 h) came out at 67.7 ± 5.6%; with MCF-7 cells [5] (24 h), 10.8 ± 2.4%; in the assay on MCF-7 cells [5] (48 h), 7.9 ± 2.8%; in the assay on MCF-7 cells [5] (72 h), 5.2 ± 2.2%. Moreover, the G2/M stood at 18.5 ± 2.2% in the assay with MCF-7 cells [5] (0 h), 65.9 ± 4.4% in the assay on MCF-7 cells [5] (24 h), 43.7 ± 2.9% in the assay on MCF-7 cells [5] (48 h) and 34.4 ± 3.4% in the assay on MCF-7 cells [5] (72 h). In addition, the S is given as 11.9 ± 1.5% with MCF-7 cells [5] (0 h), 3.8 ± 1.1% in the assay on MCF-7 cells [5] (24 h), 3.5 ± 0.8% in the assay with MCF-7 cells [5] (48 h) and 3.6 ± 1.5% with MCF-7 cells [5] (72 h). Further, the Sub-G1 worked out at 0.2 ± 0.04% in the assay with MCF-7 cells [5] (0 h), 6.8 ± 2.1% in the assay on MCF-7 cells [5] (24 h), 34.5 ± 2.5% in the assay on MCF-7 cells [5] (48 h) and 48.6 ± 3.3% with MCF-7 cells [5] (72 h). Besides, the “percent sub-G1 cells compared with noscapine” value with MCF-7 cells [5] is “higher”.

These data come from patent US8889705B2, “Noscapine analogs and their use in treating cancers” (Emory University, priority 2007, dated 2014).
